# Data reported in ChEMBL document CHEMBL3763050, “Fragment-Based Discovery of 2-Aminoquinazolin-4(3H)-ones As Novel Class Nonpeptidomimetic Inhibitors of the Plasmepsins I, II, and IV” (J Med Chem, 2016).
# Columns and labels:
# [1] = biological target: Plasmepsin I (Plasmodium falciparum, UniProt P39898); test: Inhibition of Plasmodium falciparum plasmepsin 1 preincubated for 30 mins followed by DABCYL-Glu-Arg-Nle-Phe-Leu-Ser-Phe-Pro-EDANS substrate addition by FRET assay
# [2] = Inhibition of Plasmodium falciparum plasmepsin 4 preincubated for 30 mins followed by DABCYL-Glu-Arg-Nle-Phe-Leu-Ser-Phe-Pro-EDANS substrate addition by FRET assay
# [3] = biological target: Plasmepsin II (Plasmodium falciparum, UniProt P46925); test: Inhibition of Plasmodium falciparum plasmepsin 2 preincubated for 30 mins followed by DABCYL-Glu-Arg-Nle-Phe-Leu-Ser-Phe-Pro-EDANS substrate addition by FRET assay
# Sequence of Plasmepsin II (P46925 whole entry): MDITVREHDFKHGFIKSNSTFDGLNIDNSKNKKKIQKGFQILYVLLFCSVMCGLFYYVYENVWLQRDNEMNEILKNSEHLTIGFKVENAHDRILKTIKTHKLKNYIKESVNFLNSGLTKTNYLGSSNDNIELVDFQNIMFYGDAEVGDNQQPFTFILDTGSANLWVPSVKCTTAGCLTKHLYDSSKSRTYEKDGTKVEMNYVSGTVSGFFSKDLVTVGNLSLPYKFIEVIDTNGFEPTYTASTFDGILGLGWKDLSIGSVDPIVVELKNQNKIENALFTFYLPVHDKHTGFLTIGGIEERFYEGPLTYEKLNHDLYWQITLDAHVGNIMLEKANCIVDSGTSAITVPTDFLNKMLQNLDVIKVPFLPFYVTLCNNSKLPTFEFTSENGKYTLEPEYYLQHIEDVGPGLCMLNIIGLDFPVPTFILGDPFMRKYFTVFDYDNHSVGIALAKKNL
# [4] = biological target: Cathepsin D (Homo sapiens, UniProt P07339); test: Inhibition of CatD (unknown origin) preincubated for 30 mins followed by DABCYL-Glu-Arg-Nle-Phe-Leu-Ser-Phe-Pro-EDANS substrate addition by FRET assay
# Sequence of Cathepsin D (P07339 65-162 limits assumed): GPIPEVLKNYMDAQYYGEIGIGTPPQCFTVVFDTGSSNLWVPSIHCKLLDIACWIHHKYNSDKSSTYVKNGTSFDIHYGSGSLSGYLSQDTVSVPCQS
# Sequence of Cathepsin D (P07339 169-412 limits assumed): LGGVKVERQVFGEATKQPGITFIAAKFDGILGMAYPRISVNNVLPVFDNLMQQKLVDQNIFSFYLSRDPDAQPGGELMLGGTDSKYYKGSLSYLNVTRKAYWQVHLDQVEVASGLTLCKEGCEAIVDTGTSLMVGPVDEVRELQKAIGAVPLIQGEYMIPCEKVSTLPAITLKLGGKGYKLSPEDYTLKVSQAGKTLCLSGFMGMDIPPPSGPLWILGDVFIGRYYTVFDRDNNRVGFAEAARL
# [5] = system: Plasmodium falciparum; test: Antimalarial activity against Plasmodium falciparum 3D7 after 96 hrs by SYBR Green 1 assay; format: functional, organism-based; conditions: 3D7, 96 h
# Sequence of Plasmepsin I (P39898 whole entry): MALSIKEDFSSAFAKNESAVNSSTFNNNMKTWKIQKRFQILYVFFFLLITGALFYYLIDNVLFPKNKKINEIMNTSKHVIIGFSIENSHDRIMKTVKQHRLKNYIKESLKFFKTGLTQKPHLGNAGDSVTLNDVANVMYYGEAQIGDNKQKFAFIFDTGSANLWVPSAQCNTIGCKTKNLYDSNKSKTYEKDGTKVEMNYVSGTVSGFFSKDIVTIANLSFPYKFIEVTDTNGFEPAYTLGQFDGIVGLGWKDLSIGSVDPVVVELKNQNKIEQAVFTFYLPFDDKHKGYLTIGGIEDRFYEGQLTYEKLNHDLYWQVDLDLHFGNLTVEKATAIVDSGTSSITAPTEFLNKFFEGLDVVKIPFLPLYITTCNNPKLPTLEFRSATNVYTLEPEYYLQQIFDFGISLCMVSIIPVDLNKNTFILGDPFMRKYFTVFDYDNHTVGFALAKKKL
SMILES,IC50 [1] [nM],IC50 [2] [nM],IC50 [3] [nM],IC50 [4] [nM],EC50 [5] [nM]
Nc1nc2cc(-c3ccccc3)ccc2c(=O)n1C[C@H]1CC[C@@H](c2ccccc2)O1,1200,500,340,4600,
Nc1nc2cc(-c3ccccc3)ccc2c(=O)n1C[C@@H]1CC[C@H](c2ccccc2)O1,4600,2700,3000,22000,
Nc1nc2cc(-c3ccccc3)ccc2c(=O)n1CC1CC(c2ccccc2)CO1 (mixture of isomers),52000,20000,12500,> 200000,
Nc1nc2cc(-c3ccc(C4CCCCC4)cc3)ccc2c(=O)n1C[C@@H]1CC[C@H](c2ccccc2)O1 (racemic),500,800,2400,8600,
CCCCc1ccc(-c2ccc3c(=O)n(C[C@@H]4CC[C@H](c5ccccc5)O4)c(N)nc3c2)cc1 (racemic),300,200,230,2200,900
Nc1nc2cc(-c3ccc(CCc4ccccc4)cc3)ccc2c(=O)n1C[C@@H]1CC[C@H](c2ccccc2)O1 (racemic),2000,700,2000,220000,
Nc1nc2cc(-c3ccc(CCCCc4ccccc4)cc3)ccc2c(=O)n1C[C@@H]1CC[C@H](c2ccccc2)O1 (racemic),6500,400,32000,91000,3900
Nc1nc2cc(-c3ccc(CCCc4ccccc4)cc3)ccc2c(=O)n1C[C@@H]1CC[C@H](c2ccccc2)O1 (racemic),3200,130,10000,6000,1200
Nc1nc2cc(-c3ccccc3)ccc2c(=O)n1CC1CCC2(CCCCC2)O1 (racemic),2000,3000,5300,9000,
Nc1nc2cc(-c3ccc(CCCCCc4ccccc4)cc3)ccc2c(=O)n1C[C@@H]1CC[C@H](c2ccccc2)O1 (racemic),36000,2000,12000,52000,
Nc1nc2cc(-c3ccccc3)ccc2c(=O)n1C[C@@H]1CC[C@H](c2ccc3ccccc3c2)O1 (racemic),3700,1300,2500,19500,
CCCCCc1ccc(-c2ccc3c(=O)n(C[C@@H]4CC[C@H](c5ccccc5)O4)c(N)nc3c2)cc1 (racemic),300,100,150,5000,1100
Nc1nc2cc(-c3ccccc3)ccc2c(=O)n1C[C@@H]1CC[C@H](c2ccccc2)O1 (racemic),1300,600,570,13800,
Nc1nc2cc(-c3ccc(CCC4CCCCC4)cc3)ccc2c(=O)n1C[C@@H]1CC[C@H](c2ccccc2)O1 (racemic),9400,1200,10700,100000,
CC(C)CCc1ccc(-c2ccc3c(=O)n(C[C@@H]4CC[C@H](c5ccccc5)O4)c(N)nc3c2)cc1 (racemic),1400,400,600,> 100000,
Nc1nc2cc(-c3ccccc3)ccc2c(=O)n1C[C@@H]1CCCO1 (racemic),6000,1300,2300,53400,
Nc1nc2cc(-c3ccccc3)ccc2c(=O)n1C[C@@H]1CC[C@@H](c2ccccc2)O1 (racemic),2400,1100,2900,9000,
CC(C)[C@H]1CC[C@@H](Cn2c(N)nc3cc(-c4ccccc4)ccc3c2=O)O1 (racemic),2300,1500,1600,25000,
CCCCc1cccc(-c2ccc3c(=O)n(C[C@@H]4CC[C@H](c5ccccc5)O4)c(N)nc3c2)c1 (racemic),800,1000,2000,3000,
COC(=O)CCc1ccc(-c2ccc3c(=O)n(C[C@@H]4CC[C@H](c5ccccc5)O4)c(N)nc3c2)cc1 (racemic),270,400,2600,1400,
Nc1nc2cc(-c3ccc(CCC4CC4)cc3)ccc2c(=O)n1C[C@@H]1CC[C@H](c2ccccc2)O1 (racemic),480,300,400,3200,
